PubChem BioAssay (NCI)
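Test compounds were applied to cells in 96-well plates for 48 hours at 5 doses. TGI marks complete inhibition of growth.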

How the values were obtained:
Assay in all cases: NCI anticancer screen, dose series, 48 h
[1] = tested on: 786-0 renal
[2] = tested on: A498 renal
[3] = tested on: A549 NSCLC
[4] = tested on: ACHN renal
[5] = tested on: BT-549 breast
[6] = tested on: CAKI-1 renal
[7] = tested on: CCRF-CEM leukemia
[8] = tested on: COLO 205 colon
[9] = tested on: DU-145 prostate
[10] = tested on: EKVX NSCLC
[11] = tested on: HCC-2998 colon
[12] = tested on: HCT-116 colon
[13] = tested on: HCT-15 colon
[14] = tested on: HL-60(TB) leukemia
[15] = tested on: HOP-62 NSCLC
[16] = tested on: HOP-92 NSCLC
[17] = tested on: HS 578T breast
[18] = tested on: HT29 colon
[19] = tested on: IGROV1 ovarian
[20] = tested on: K-562 leukemia
[21] = tested on: KM12 colon
[22] = tested on: LOX IMVI melanoma
[23] = tested on: M14 melanoma
[24] = tested on: MALME-3M melanoma
[25] = tested on: MCF7 breast
[26] = tested on: MDA-MB-231 breast
[27] = tested on: MDA-MB-435
[28] = tested on: MDA-N
[29] = tested on: MOLT-4 leukemia
[30] = tested on: NCI-H226 lung
[31] = tested on: NCI-H23 lung
[32] = tested on: NCI-H460 lung
[33] = tested on: NCI-H522 lung
[34] = tested on: NCI/ADR-RES ovarian
[35] = tested on: OVCAR-3 ovarian
[36] = tested on: OVCAR-4 ovarian
[37] = tested on: OVCAR-5 ovarian
[38] = tested on: OVCAR-8 ovarian
[39] = tested on: PC-3 prostate
[40] = tested on: RPMI-8226 leukemia
[41] = tested on: RXF 393 renal
[42] = tested on: SF-268 CNS
[43] = tested on: SF-295 CNS
[44] = tested on: SF-539 CNS
[45] = tested on: SK-MEL-2 melanoma
[46] = tested on: SK-MEL-28 melanoma
[47] = tested on: SK-MEL-5 melanoma
[48] = tested on: SK-OV-3 ovarian
[49] = tested on: SN12C renal
[50] = tested on: SNB-19 CNS
[51] = tested on: SNB-75 CNS
[52] = tested on: SR leukemia
[53] = tested on: SW-620 colon
[54] = tested on: T-47D breast
[55] = tested on: TK-10 renal
[56] = tested on: U251 CNS
[57] = tested on: UACC-257 melanoma
[58] = tested on: UACC-62 melanoma
[59] = tested on: UO-31 renal

With `CC(C)=CCC/C(C)=C/CC/C(C)=C/CCN(C)CCO` the TGI [1] was 4.83 µM, the TGI [2] was 29.3 µM and the TGI [3] was 23.3 µM. It also gave a TGI [4] of 23.9 µM, a TGI [5] of 26.3 µM and a TGI [6] of 19.2 µM. It also gave a TGI [7] of 8.65 µM, a TGI [8] of 3.25 µM and a TGI [9] of 25.9 µM. The TGI [10] was 32.3 µM, the TGI [11] was 4.38 µM and the TGI [12] was 16.3 µM. The TGI [13] was 13.7 µM, the TGI [14] was 3.68 µM and the TGI [15] was 19.6 µM. The TGI [16] was 9.9 µM, the TGI [17] was 6.57 µM and the TGI [18] was 23.3 µM. For the same molecule, the TGI [19] was 8.34 µM, the TGI [20] was 3.24 µM and the TGI [21] was 7.77 µM. It also gave a TGI [22] of 14.3 µM, a TGI [23] of 3.81 µM and a TGI [24] of 8.33 µM. The TGI [25] was 7.13 µM, the TGI [26] was 23.9 µM and the TGI [27] was 17.4 µM. For the same molecule, the TGI [28] was 14.3 µM, the TGI [29] was 11.1 µM and the TGI [30] was 38.7 µM. For the same molecule, the TGI [31] was 27.6 µM, the TGI [32] was 14.5 µM and the TGI [33] was 16.5 µM. It also gave a TGI [34] of 26.7 µM, a TGI [35] of 28.9 µM and a TGI [36] of 29.1 µM. The TGI [37] was 21.1 µM, the TGI [38] was 27.3 µM and the TGI [39] was 18.2 µM. It also gave a TGI [40] of 11 µM, a TGI [41] of 24.9 µM and a TGI [42] of 27 µM. It also gave a TGI [43] of 12.1 µM, a TGI [44] of 14.8 µM and a TGI [45] of 28.1 µM. It also gave a TGI [46] of 25.1 µM, a TGI [47] of 3.44 µM and a TGI [48] of 29.6 µM. The TGI [49] was 25.5 µM, the TGI [50] was 22.8 µM and the TGI [51] was 21 µM. It also gave a TGI [52] of 21.4 µM, a TGI [53] of 18.4 µM and a TGI [54] of 7.4 µM. For the same molecule, the TGI [55] was 19.4 µM, the TGI [56] was 12.7 µM and the TGI [57] was 21.7 µM. The TGI [58] was 27.1 µM and the TGI [59] was 25.3 µM.
`Cc1ccc(C(N)=Nc2ccccc2)cc1` showed a TGI [1] of over 100 µM, a TGI [2] of over 100 µM and a TGI [3] of over 100 µM. For the same molecule, the TGI [4] was over 100 µM, the TGI [5] was over 100 µM and the TGI [6] was over 100 µM. For the same molecule, the TGI [7] was over 100 µM, the TGI [8] was 42.2 µM and the TGI [9] was over 100 µM. For the same molecule, the TGI [10] was over 100 µM, the TGI [11] was 33.7 µM and the TGI [12] was over 100 µM. For the same molecule, the TGI [13] was over 100 µM, the TGI [14] was over 100 µM and the TGI [15] was over 100 µM. The TGI [16] was over 100 µM, the TGI [17] was over 100 µM and the TGI [18] was over 100 µM. The TGI [19] was over 100 µM, the TGI [20] was over 100 µM and the TGI [21] was over 100 µM. The TGI [22] was over 100 µM, the TGI [23] was over 100 µM and the TGI [24] was over 100 µM. It also gave a TGI [25] of over 100 µM, a TGI [26] of over 100 µM and a TGI [27] of over 100 µM. For the same molecule, the TGI [28] was over 100 µM, the TGI [29] was over 100 µM and the TGI [30] was over 100 µM. For the same molecule, the TGI [31] was over 100 µM, the TGI [32] was over 100 µM and the TGI [33] was over 100 µM. It also gave a TGI [34] of over 100 µM, a TGI [35] of over 100 µM and a TGI [36] of over 100 µM. The TGI [37] was over 100 µM, the TGI [38] was over 100 µM and the TGI [39] was over 100 µM. The TGI [40] was over 100 µM, the TGI [41] was over 100 µM and the TGI [42] was over 100 µM. It also gave a TGI [43] of over 100 µM, a TGI [44] of over 100 µM and a TGI [45] of over 100 µM. It also gave a TGI [46] of over 100 µM, a TGI [47] of over 100 µM and a TGI [48] of over 100 µM. For the same molecule, the TGI [49] was over 100 µM, the TGI [50] was over 100 µM and the TGI [51] was over 100 µM. It also gave a TGI [52] of over 100 µM, a TGI [53] of over 100 µM and a TGI [54] of over 100 µM. It also gave a TGI [55] of over 100 µM, a TGI [56] of over 100 µM and a TGI [57] of over 100 µM. It also gave a TGI [58] of over 100 µM and a TGI [59] of over 100 µM.
